Our source for the IC50 values is US12528818B2, “Compositions and methods for inhibition of RAS” (Leidos Biomedical Research, Inc., priority 2021, dated 2026).

SMILES strings stand for the structures.

The test system of this experiment is pERK in NCI-H358 cells. Nature of the experiment: Cell-based pERK HTRF assay (pERK inhibition in H358 cells). The note with it: Homo sapiens, NCI-H358, 0.5 h, pERK inhibition IC50, NCI-H358 cells, 30 min incubation; read-out: PERK in H358 cell. In general terms: TR-FRET usually uses a lanthanide donor and a delayed reading to cut background.

`C=CC(=O)N1CCN(c2nc(OC[C@]34CCCN3C[C@H](F)C4)nc3c(F)c(-c4ccc(F)c5sc(N)nc45)c(C(F)(F)F)cc23)[C@@H](C)C1` [Compound 177]: the IC50 was under 0.1 µM. In the case of `C=CC(=O)N1CC(N(c2nc(OC[C@]34CCCN3C[C@H](F)C4)nc3c(F)c(-c4ccc(F)c5sc(N)nc45)c(C(F)(F)F)cc23)C2CC2)C1` [Compound 178, 1-(3-((7-(2-amino-7-fluorobenzo[d]thiazol-4-yl)-8-fluoro-2-(((2R,7aR)-2-fluorotetrahydro-1H-pyrrolizin-7a(5H)-yl)methoxy)-6-(trifluoromethyl)quinazolin-4-yl)(cyclopropyl)amino)azetidin-1-yl)prop-2-en-1-one] it was 0.1 to 1 µM; in that of `CC#CC(=O)N1CC[C@@H]2[C@H]1CN2c1nc(OCC23CCCN2CCC3)nc2c(F)c(-c3ccc(F)c4sc(N)nc34)c(C(F)(F)F)cc12` [Compound 180], over 1 µM; in that of `C=CC(=O)N1CC(N(C)c2nc(OC[C@@H]3CC(F)(F)CN3C)nc3c(F)c(-c4ccc(F)c5sc(N)nc45)c(C(F)(F)F)cc23)C1` [Compound 181], over 1 µM. To `C=CC(=O)N1CC[C@H](N(C)c2nc(OC[C@@]34CCCN3C[C@H](F)C4)nc3c(F)c(-c4ccc(F)c5sc(N)nc45)c(Cl)cc23)C1` [Compound 185] belongs 0.1 to 1 µM; to `C=C(F)C(=O)N1CCN(c2nc(OC[C@@]34CCCN3C[C@H](F)C4)nc3c(F)c(-c4ccc(F)c5sc(N)nc45)c(C(F)(F)F)cc23)CC1` [Compound 186], 0.1 to 1 µM; to `C=CC(=O)N1CC(N(C)c2nc(OCC34CCCN3CC(F)(F)C4)nc3c(F)c(-c4ccc(F)c5sc(N)nc45)c(C(F)(F)F)cc23)C1` (stereo not drawn) [Compound 187], 0.1 to 1 µM. On to `C=CC(=O)N1CC[C@H](N(C)c2nc(OC[C@@]34CCCN3C[C@H](F)C4)nc3c(F)c(-c4ccc(F)c5sc(N)nc45)c(C(F)(F)F)cc23)C1` [Compound 188], for which the IC50 was in the range of 0.1 to 1 µM.

For `C=CC(=O)N1CCN(c2nc(OC[C@@]34CCCN3C[C@H](F)C4)nc3c(F)c(-c4ccc(F)c5sc(N)nc45)c(C(F)(F)F)cc23)[C@@H](C)C1` [Compound 189], the IC50 is under 0.1 µM. Regarding `C=CC(=O)N1CCN(c2nc(OC[C@]34CCCN3C[C@H](F)C4)nc3c(F)c(-c4ccc(F)c5sc(N)nc45)c(C(F)(F)F)cc23)C[C@H]1C` [Compound 190], the IC50 was under 0.1 µM.

In the case of `C=C(F)C(=O)N1CCN(c2nc(OC[C@]34CCCN3C[C@H](F)C4)nc3c(F)c(-c4ccc(F)c5sc(N)nc45)c(C(F)(F)F)cc23)C[C@H]1C` [Compound 191], the IC50 is 0.1 to 1 µM. As to `C=CC(=O)N1CCN(c2nc(OCC34CCCN3CC(F)(F)C4)nc3c(F)c(-c4ccc(F)c5sc(N)nc45)c(C(F)(F)F)cc23)CC1` (stereo not drawn) [Compound 192], the IC50 was under 0.1 µM. In the case of `CC#CC(=O)N1CCN(c2nc(OCC34CCCN3CC(F)(F)C4)nc3c(F)c(-c4ccc(F)c5sc(N)nc45)c(C(F)(F)F)cc23)CC1` (stereo not drawn) [Compound 193] it was over 1 µM; in that of `C=CC(=O)N1CCN(c2nc(OC[C@@]34CCCN3C[C@H](F)C4)nc3c(F)c(-c4ccc(F)c5sc(N)nc45)c(C(F)(F)F)cc23)CC1` [Compound 194], under 0.1 µM. For the compound `C=CC(=O)N1CC[C@@H](N(C)c2nc(OC[C@@]34CCCN3C[C@H](F)C4)nc3c(F)c(-c4ccc(F)c5sc(N)nc45)c(Cl)cc23)C1` [Compound 195, 1-((3R)-3-((7-(2-amino-7-fluorobenzo[d]thiazol-4-yl)-6-chloro-8-fluoro-2-(((2R,7aS)-2-fluorotetrahydro-1H-pyrrolizin-7a(5H)-yl)methoxy)quinazolin-4-yl)(methyl)amino)pyrrolidin-1-yl)prop-2-en-1-one], the IC50 was under 0.1 µM.

With `C=CC(=O)N1CCN(c2nc(OC[C@]34CCCN3C[C@H](F)C4)nc3c(F)c(-c4ccc(F)c5sc(N)nc45)c(C(F)(F)F)cc23)[C@H](C)C1` [Compound 196], the IC50 was under 0.1 µM. In the case of `C=CC(=O)N1C[C@@H](Nc2nc(OCC34CCCN3CCC4)nc3c(F)c(-c4ccc(F)c5sc(N)nc45)c(Cl)cc23)[C@H]1C` [Compound 197] it was over 1 µM. As for `C=CC(=O)N1CC[C@@H](N(C)c2nc(OC[C@@]34CCCN3C[C@H](F)C4)nc3c(F)c(-c4ccc(F)c5sc(N)nc45)c(C(F)(F)F)cc23)C1` [Compound 198], the IC50 was under 0.1 µM. As for `C=C(F)C(=O)N1CCN(c2nc(OC[C@]34CCCN3C[C@H](F)C4)nc3c(F)c(-c4ccc(F)c5sc(N)nc45)c(C(F)(F)F)cc23)[C@H](C)C1` [Compound 199], the IC50 is 0.1 to 1 µM. To `C=CC(=O)N1CCN(c2c(C#N)c(OC[C@@]34CCCN3C[C@H](F)C4)nc3c(F)c(-c4ccc(F)c5sc(N)nc45)c(Cl)cc23)CC1` [Compound 200] belongs under 0.1 µM; to `C=CC(=O)N1CC(N(C)c2nc(OC[C@@]34CCCN3C[C@H](OC)C4)nc3c(F)c(-c4ccc(F)c5sc(N)nc45)c(C(F)(F)F)cc23)C1` [Compound 201], 0.1 to 1 µM.

As to `C=CC(=O)N1C[C@H](C)N(c2nc(OC[C@@]34CCCN3C[C@H](F)C4)nc3c(F)c(-c4ccc(F)c5sc(N)nc45)c(C(F)(F)F)cc23)C[C@H]1C` [Compound 202, 1-((2R,5S)-4-(7-(2-amino-7-fluorobenzo[d]thiazol-4-yl)-8-fluoro-2-(((2R,7aS)-2-fluorotetrahydro-1H-pyrrolizin-7a(5H)-yl)methoxy)-6-(trifluoromethyl)quinazolin-4-yl)-2,5-dimethylpiperazin-1-yl)prop-2-en-1-one], the IC50 is under 0.1 µM. To `C=C(F)C(=O)N1C[C@H](C)N(c2nc(OC[C@@]34CCCN3C[C@H](F)C4)nc3c(F)c(-c4ccc(F)c5sc(N)nc45)c(C(F)(F)F)cc23)C[C@H]1C` [Compound 203] belongs 0.1 to 1 µM. In the case of `C=CC(=O)N1C[C@H](C)N(c2nc(OC[C@]34CCCN3C[C@H](F)C4)nc3c(F)c(-c4ccc(F)c5sc(N)nc45)c(C(F)(F)F)cc23)C[C@H]1C` [Compound 204, 1-((2R,5S)-4-(7-(2-amino-7-fluorobenzo[d]thiazol-4-yl)-8-fluoro-2-(((2R,7aR)-2-fluorotetrahydro-1H-pyrrolizin-7a(5H)-yl)methoxy)-6-(trifluoromethyl)quinazolin-4-yl)-2,5-dimethylpiperazin-1-yl)prop-2-en-1-one], the IC50 is under 0.1 µM.

`C=C(F)C(=O)N1C[C@H](C)N(c2nc(OC[C@]34CCCN3C[C@H](F)C4)nc3c(F)c(-c4ccc(F)c5sc(N)nc45)c(C(F)(F)F)cc23)C[C@H]1C` [Compound 205]: the IC50 lay within 0.1 to 1 µM. In the case of `C=CC(=O)N1CC(N(CC)c2nc(OC[C@]34CCCN3C[C@H](F)C4)nc3c(F)c(-c4ccc(F)c5sc(N)nc45)c(C(F)(F)F)cc23)C1` [Compound 206] it was 0.1 to 1 µM; in that of `C=CC(=O)N1CCN(c2nc(OC[C@@]34CCCN3C[C@H](F)C4)nc3c(F)c(-c4ccc(F)c5sc(N)nc45)c(C(F)(F)F)cc23)C[C@H]1C` [Compound 207], under 0.1 µM; in that of `C=C(F)C(=O)N1CCN(c2nc(OC[C@@]34CCCN3C[C@H](F)C4)nc3c(F)c(-c4ccc(F)c5sc(N)nc45)c(C(F)(F)F)cc23)C[C@H]1C` [Compound 208], 0.1 to 1 µM.

On to `C=CC(=O)N1CCN(c2nc(OCC34CCCN3C[C@H](OC)C4)nc3c(F)c(-c4ccc(F)c5sc(N)nc45)c(C(F)(F)F)cc23)CC1` (stereo partly drawn) [Compound 209], for which the IC50 is under 0.1 µM.

Turning to `C=CC(=O)N1CC(N(c2nc(OC[C@]34CCCN3C[C@H](F)C4)nc3c(F)c(-c4ccc(F)c5sc(N)nc45)c(Cl)cc23)C2CC2)C1` [Compound 210], the IC50 is over 1 µM. Turning to `C=CC(=O)N1CC(Nc2nc(OCC34CCCN3CCC4)nc3c(F)c(-c4ccc(F)c5sc(N)nc45)c(Cl)cc23)[C@H]1C` (stereo partly drawn) [Compound 213], the IC50 is over 1 µM. For the compound `C=CC(=O)N1[C@H](C)CN(c2nc(OC[C@]34CCCN3C[C@H](F)C4)nc3c(F)c(-c4ccc(F)c5sc(N)nc45)c(C(F)(F)F)cc23)C[C@@H]1C` [Compound 215], the IC50 is under 0.1 µM.

With `C=CC(=O)N1CCN(c2nc(OC[C@@]34CCCN3C[C@@H](F)C4)nc3c(F)c(-c4ccc(F)c5sc(N)nc45)c(C(F)(F)F)cc23)[C@H](C)C1` [Compound 217], the IC50 lay within 0.1 to 1 µM. Turning to `C=CC(=O)N1CCN(c2nc(OC[C@@]34CCCN3C[C@@H](F)C4)nc3c(F)c(-c4ccc(F)c5sc(N)nc45)c(C(F)(F)F)cc23)[C@@H](C)C1` [Compound 218], the IC50 was under 0.1 µM. As for `C=CC(=O)N1C[C@H](C)N(c2nc(OC[C@@]34CCCN3C[C@@H](F)C4)nc3c(F)c(-c4ccc(F)c5sc(N)nc45)c(C(F)(F)F)cc23)C[C@H]1C` [Compound 219], the IC50 was under 0.1 µM. For `C=CC(=O)N1CCN(c2nc(OC[C@@]34CCCN3C[C@@H](F)C4)nc3c(F)c(-c4ccc(F)c5sc(N)nc45)c(C(F)(F)F)cc23)C[C@H]1C` [Compound 220], the IC50 was under 0.1 µM. For the compound `C=CC(=O)N1CC(N(C)c2nc(OC[C@@]34CCCN3C[C@H](F)C4)nc3c(F)c(-c4ccc(F)c5sc(N)nc45)c(C(F)(F)F)cc23)C1` [Compound 223], the IC50 was under 0.1 µM. On to `C=CC(=O)N1[C@H](C)CN(c2nc(OC[C@@]34CCCN3C[C@@H](F)C4)nc3c(F)c(-c4ccc(F)c5sc(N)nc45)c(C(F)(F)F)cc23)C[C@@H]1C` [Compound 224], for which the IC50 is under 0.1 µM. As for `C=CC(=O)N1CC[C@@H](N(C)c2ncnc3c(F)c(-c4ccc(F)c5sc(N)nc45)c(C(F)(F)F)cc23)C1` [Compound 225], the IC50 lay within 0.1 to 1 µM. As to `C=CC(=O)N1CC[C@@H](N(C)c2nc(OCC34CCCN3CCC4)nc3c(F)c(-c4cc(O)cc5ccccc45)c(C(F)(F)F)cc23)C1` [Compound 226], the IC50 was 0.1 to 1 µM. Take `C=CC(=O)N1CC[C@@H](N(C)c2nc(OCC34CCCN3CCC4)nc3c(F)c(-c4c(O)cccc4F)c(C(F)(F)F)cc23)C1` [Compound 227]: the IC50 is over 1 µM. For `C=CC(=O)N1CC[C@@H](N(C)c2nc(OC[C@@H]3CCCN3C)nc3c(F)c(-c4ccc(F)c5sc(N)nc45)c(C(F)(F)F)cc23)C1` [Compound 230], the IC50 lay in the range of 0.1 to 1 µM.
